Measurements published in ChEMBL document CHEMBL1127438, “Substituted (S)-phenylpiperidines and rigid congeners as preferential dopamine autoreceptor antagonists: synthesis and structure-activity relationships” (J Med Chem, 1994).

How the values were obtained:
D(2) dopamine receptor [1] = target: T1, D(2) dopamine receptor (Homo sapiens, UniProt P14416); assay: biochemical
Description: Affinity against recombinant dopamine receptor (DA) D2 expressed in CHO-K1 cells, using [3H]-spiperone as radioligand

D(2) dopamine receptor [2] = target: T2, D(2) dopamine receptor (Rattus norvegicus, UniProt P61169)
Description: Affinity against striatal dopamine D2 receptors using [3H]spiperone as radioligand in rats.

Rattus norvegicus [3] = assay: Evaluated biochemically in nonpretreated habituated rats for (100 uM/kg) subcuteneous dose, Value expressed as locomotor activity (LMA); type: functional
D(2) dopamine receptor [4] = target: T1, D(2) dopamine receptor; assay: biochemical; remark: listed apart in the source
Description: In vitro binding affinity against cloned mammalian dopamine D2 autoreceptor, expressed in CHO-K1 cells, using [3H]U-86170 as radioligand

Rattus norvegicus [5] = assay: Evaluated for DOPAC level in nonpretreated habituated rats after subcuteneous dose of 100 micro mol/kg in rat striatum; type: functional
Rattus norvegicus [6] = assay: Evaluated for DOPA accumulation (DOPAacc) level in nonhabituated rats after subcuteneous dose (100 uM/kg) in rat striatum; type: functional
Rattus norvegicus [7] = assay: Evaluated biochemically in nonhabituated rats for (100 umol/kg) subcuteneous dose, Value expressed as locomotor activity (LMA); type: functional
Rattus norvegicus [8] = assay: Effect of (60 min after administration of 200 (uM/kg) subcuteneous dose on DA release in brain dialysis model of rat striatum; Values expressed as percent of saline controls; type: functional
D(3) dopamine receptor [9] = target: T3, D(3) dopamine receptor (Homo sapiens, UniProt P35462); assay: Tested for in vitro binding affinity against cloned mammalian dopamine D3 receptor, expressed in CHO-K1 cells, using [3H]spiperone as radioligand; type: cell-based
T3 sequence (P35462 whole entry): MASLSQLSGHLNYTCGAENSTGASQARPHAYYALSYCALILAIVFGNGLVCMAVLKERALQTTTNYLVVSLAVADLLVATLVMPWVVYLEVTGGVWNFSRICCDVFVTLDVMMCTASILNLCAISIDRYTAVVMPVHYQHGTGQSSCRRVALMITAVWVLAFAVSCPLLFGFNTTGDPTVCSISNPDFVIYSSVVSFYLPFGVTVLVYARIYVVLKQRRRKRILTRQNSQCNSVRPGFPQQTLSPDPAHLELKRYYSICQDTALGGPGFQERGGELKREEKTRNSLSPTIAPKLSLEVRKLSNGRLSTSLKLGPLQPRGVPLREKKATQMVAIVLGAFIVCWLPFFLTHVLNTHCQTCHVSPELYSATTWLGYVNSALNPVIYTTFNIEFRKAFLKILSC

Rattus norvegicus [10] = assay: Evaluated for biochemical levels of DOPAC in nonpretreated habituated rats for subcuteneous dose of 100 micro mol/kg in rat striatum; type: functional
D(2) dopamine receptor [11] = target: T2, D(2) dopamine receptor; assay: Tested for affinity against striatal dopamine autoreceptor (DA) D2 receptors using [3H]spiperone as radioligand in rats.
D(3) dopamine receptor [12] = target: T3, D(3) dopamine receptor; assay: Tested for in vitro binding affinity against cloned mammalian dopamine autoreceptor (DA) receptors expressed in CHO-K1 cells [3H]-spiperone as radioligand; type: cell-based
Rattus norvegicus [13] = assay: Evaluated for locomotor activity in nonpretreated habituated rats in 100 umol/kg of subcuteneous dose; type: functional; set-up: unit not given here
Dopamine receptor = assay: Tested for in vitro binding affinity against cloned mammalian dopamine autoreceptor (DA) receptors expressed in CHO-K1 cells using [3H]U-86170 as radioligand; type: cell-based
Rattus norvegicus [14] = assay: Evaluated biochemically in reserpine-pretreated habituated rats for (100 umol/kg) subcuteneous dose in rat striatum (DOPAacc), Value expressed as counts/30 min; type: functional
Rattus norvegicus [15] = assay: Evaluated biochemically in reserpine-pretreated habituated rats for (100 umol/kg) subcuteneous dose, Value expressed as locomotor activity (LMA); type: functional
Rattus norvegicus [16] = assay: Evaluated for DOPA accumulation in nonhabituated rats at 100 umol/kg of subcuteneous dose in rat striatum; type: functional
Rattus norvegicus [17] = species on record: Rattus norvegicus; assay: Tested in vio for concomitant ability to antagonize the locomotor activity of rat induced by Di-Pr-5,6-ADTN, Value expressed as locomotor activity (LMA), % of control; type: functional; set-up: scale not given: the % may be the effect or the level left
Rattus norvegicus [18] = assay: Tested in vivo for its ability to displace DA receptor agonist (Di-Pr-5,6-ADTN) from rat striatal binding sites at 0.25 uM/Kg sc. dose (after subtraction of cerebellum levels); type: functional

T1 sequence (P14416 whole entry): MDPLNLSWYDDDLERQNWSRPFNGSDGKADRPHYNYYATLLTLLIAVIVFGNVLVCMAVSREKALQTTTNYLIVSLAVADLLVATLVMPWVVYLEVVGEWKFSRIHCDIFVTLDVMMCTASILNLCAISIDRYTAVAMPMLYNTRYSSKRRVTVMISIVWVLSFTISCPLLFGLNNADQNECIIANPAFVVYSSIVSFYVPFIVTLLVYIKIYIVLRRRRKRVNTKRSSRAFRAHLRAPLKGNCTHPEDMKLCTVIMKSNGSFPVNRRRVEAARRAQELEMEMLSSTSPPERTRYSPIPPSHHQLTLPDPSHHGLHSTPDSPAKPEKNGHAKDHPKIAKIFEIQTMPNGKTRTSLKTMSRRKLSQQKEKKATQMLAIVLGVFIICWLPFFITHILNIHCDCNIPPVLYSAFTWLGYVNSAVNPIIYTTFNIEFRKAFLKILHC
T2 sequence (P61169 whole entry): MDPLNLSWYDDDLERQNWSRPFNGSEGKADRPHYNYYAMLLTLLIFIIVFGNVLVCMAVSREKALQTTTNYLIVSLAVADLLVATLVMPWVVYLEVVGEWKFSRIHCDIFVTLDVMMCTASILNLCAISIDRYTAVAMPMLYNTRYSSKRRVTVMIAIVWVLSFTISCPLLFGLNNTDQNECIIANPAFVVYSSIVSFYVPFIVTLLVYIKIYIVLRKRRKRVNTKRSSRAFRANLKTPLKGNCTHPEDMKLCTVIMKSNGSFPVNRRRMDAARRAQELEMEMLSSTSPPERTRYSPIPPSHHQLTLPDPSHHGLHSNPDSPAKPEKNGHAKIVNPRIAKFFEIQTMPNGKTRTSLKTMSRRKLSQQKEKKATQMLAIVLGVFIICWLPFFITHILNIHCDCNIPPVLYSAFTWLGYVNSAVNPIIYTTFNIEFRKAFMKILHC

SMILES | Ki (D(2) dopamine receptor [1]) [µM] | Ki (D(2) dopamine receptor [2]) [µM] | Control (Rattus norvegicus [3]) [%] | Ki (D(2) dopamine receptor [4]) [µM] | Activity (Rattus norvegicus [5]) [%] | Ki (D(3) dopamine receptor [9]) [µM] | further results
CCN1CCC[C@@H](c2cccc(C#N)c2)C1 | > 0.217 | 2.33 | 351 | 0.235 | 264 | 0.514 | Activity (Rattus norvegicus [6]): 318%; Locomotor activity (% of control) (Rattus norvegicus [7]): 113%; Activity (Rattus norvegicus [8]): 212%
CCCN1CCC2c3cccc(OS(=O)(=O)C(F)(F)F)c3CCC21 (stereo not given) | > 0.217 |  |  |  |  |  | Activity (Rattus norvegicus [10]): 223%; Ki (D(2) dopamine receptor [11]): 0.082 µM; Ki (D(3) dopamine receptor [12]): 0.061 µM; LMA (Rattus norvegicus [13]): 687; Ki (Dopamine receptor): 0.089 µM
CCCN1CCC[C@@H](c2cccc(C)c2)C1 | > 0.217 |  |  |  |  |  | Ki (D(2) dopamine receptor [11]): 0.93 µM; Ki (D(3) dopamine receptor [12]): 0.573 µM; Ki (Dopamine receptor): 0.43 µM
CCCN1CCC[C@@H](c2cccc(O)c2)C1 [PRECLAMOL] |  |  | 119 |  | 203 |  | Activity (Rattus norvegicus [14]): 25%; Control (Rattus norvegicus [15]): 12%; Activity (Rattus norvegicus [6]): 141; Locomotor activity (% of control) (Rattus norvegicus [7]): 40%; Activity (Rattus norvegicus [8]): 190
CCCN1CCC[C@@H](c2ccccc2OS(=O)(=O)C(F)(F)F)C1 | > 0.217 |  |  |  |  |  | Activity (Rattus norvegicus [10]): 83%; Activity (Rattus norvegicus [16]): 102%; Ki (D(3) dopamine receptor [12]): 3.11 µM; Ki (Dopamine receptor): 0.315 µM
N#Cc1cccc([C@@H]2CCCNC2)c1 | > 0.217 |  | 575 | 0.314 | 167 | 0.631 | Activity (Rattus norvegicus [6]): 271%; Locomotor activity (% of control) (Rattus norvegicus [7]): 193%
CCCN1CCC[C@@H](c2cccc(CC#N)c2)C1 | > 0.217 | 1.23 | 887 | 0.069 | 302 | 0.509 | Activity (Rattus norvegicus [14]): 57%; Control (Rattus norvegicus [15]): 16%; Activity (Rattus norvegicus [6]): 207%; Locomotor activity (% of control) (Rattus norvegicus [7]): 147%
CN1CCC[C@@H](c2cccc(OS(=O)(=O)C(F)(F)F)c2)C1 | > 0.217 |  |  |  |  |  | Ki (D(2) dopamine receptor [11]): 11.8 µM
C=CCN1CCC2c3cccc(C#N)c3CCC21 (stereo not given) |  | > 0.172 | 292 | 0.984 | 172 | > 0.455 | 
CCCN1CCC[C@@H](c2ccc(OS(=O)(=O)C(F)(F)F)cc2)C1 | > 0.217 |  |  |  |  |  | Activity (Rattus norvegicus [10]): 85%; Activity (Rattus norvegicus [16]): 495%; Ki (D(2) dopamine receptor [11]): 11.8 µM; Ki (D(3) dopamine receptor [12]): 1.14 µM; Ki (Dopamine receptor): 1.736 µM
CCCN1CCC[C@@H](c2cccc(S(=O)(=O)N(C)C)c2)C1 |  | 3.39 | 548 |  | 355 | 0.17 | Activity (Rattus norvegicus [8]): 220%
CCCN1CCC[C@@H](c2ccc(OS(=O)(=O)C(F)(F)F)c(OS(=O)(=O)C(F)(F)F)c2)C1 | > 0.217 |  |  |  |  |  | Activity (Rattus norvegicus [10]): 96%; Ki (D(3) dopamine receptor [12]): 0.338 µM; LMA (Rattus norvegicus [13]): 36; Ki (Dopamine receptor): 1.1 µM
CCCN1CCC[C@@H](c2cccc(S(C)(=O)=O)c2)C1 | > 0.217 | 6.27 | 368 | 0.447 | 250 | 1.3 | Activity (Rattus norvegicus [14]): 95%; Control (Rattus norvegicus [17]): 101%; Control (Rattus norvegicus [15]): 10%; Activity (Rattus norvegicus [6]): 319%; Locomotor activity (% of control) (Rattus norvegicus [7]): 135%; Activity (Rattus norvegicus [8]): 293%; Control (Rattus norvegicus [18]): 45%
C=CCN1CC[C@H]2c3cccc(OC)c3CC[C@H]21 |  |  | 182 |  | 314 |  | 
CCCN1CCC[C@@H](c2cccc(C(=O)OC)c2)C1 | > 0.217 | 2.17 | 297 | > 1.85 | 140 | > 1.28 | 
CCCN1CCC[C@@H](c2cccc(C(N)=O)c2)C1 | > 0.217 | > 15 | 203 | > 1.85 | 114 | > 1.28 | Activity (Rattus norvegicus [14]): 97%
CCCCN1CCC[C@@H](c2cccc(C#N)c2)C1 | > 0.217 | 0.617 | 1382 |  | 257 |  | Activity (Rattus norvegicus [14]): 71%; Control (Rattus norvegicus [15]): 12%
